System: 485176-168-R4-J1-PDC complex spheroid growth
Assay: Anticancer human tumor 485176-168-R4-J1-PDC patient-derived pancreatic adenocarcinoma cell line growth inhibition [RAS]
Conditions: for IC50: curve of first compound; for viability, T/C: stronger effect = lower value
How it was run: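 Agents were tested in combination matrices in half-log decrements from a top concentration at or near clinical Cmax (10 microM if undetermined). Targets were multi-cell spheroids of tumour lines plus HUVEC and MSC stromal cells.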

[1] = second compound 0.00316 µM, first compound 0.0316 µM
[2] = second compound 0.00316 µM, first compound 0.1 µM
[3] = second compound 0.00316 µM, first compound 0.316 µM
[4] = second compound 0.00316 µM, first compound 1 µM
[5] = second compound 0.00316 µM, first compound 3.16 µM
[6] = second compound 0.00316 µM, first compound 10 µM
[7] = second compound 0.01 µM, first compound 0.0316 µM
[8] = second compound 0.01 µM, first compound 0.1 µM
[9] = second compound 0.01 µM, first compound 0.316 µM
[10] = second compound 0.01 µM, first compound 1 µM
[11] = second compound 0.01 µM, first compound 3.16 µM
[12] = second compound 0.01 µM, first compound 10 µM
[13] = second compound 0.0316 µM, first compound 0.0316 µM
[14] = second compound 0.0316 µM, first compound 0.1 µM
[15] = second compound 0.0316 µM, first compound 0.316 µM
[16] = second compound 0.0316 µM, first compound 1 µM
[17] = second compound 0.0316 µM, first compound 3.16 µM
[18] = second compound 0.0316 µM, first compound 10 µM
[19] = second compound 0.1 µM, first compound 0.0316 µM
[20] = second compound 0.1 µM, first compound 0.1 µM
[21] = second compound 0.1 µM, first compound 0.316 µM
[22] = second compound 0.1 µM, first compound 1 µM
[23] = second compound 0.1 µM, first compound 3.16 µM
[24] = second compound 0.1 µM, first compound 10 µM
[25] = second compound 0.316 µM, first compound 0.0316 µM
[26] = second compound 0.316 µM, first compound 0.1 µM
[27] = second compound 0.316 µM, first compound 0.316 µM
[28] = second compound 0.316 µM, first compound 1 µM
[29] = second compound 0.316 µM, first compound 3.16 µM
[30] = second compound 0.316 µM, first compound 10 µM
[31] = second compound 1 µM, first compound 0.0316 µM
[32] = second compound 1 µM, first compound 0.1 µM
[33] = second compound 1 µM, first compound 0.316 µM
[34] = second compound 1 µM, first compound 1 µM
[35] = second compound 1 µM, first compound 3.16 µM
[36] = second compound 1 µM, first compound 10 µM
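Also: spheroids exposed to compounds for seven days before readout.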
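For viability, T/C in this document: luminescence viability expressed relative to DMSO vehicle wells set as 100%.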

For `Cc1nc(N2CCC3(CC2)COC(C)C3N)c(CO)nc1Sc1ccnc(N)c1Cl` (stereo unspecified) + C=CC(=O)N1CCN(c2nc(OCC3CCCN3C)nc3c(F)c(-c4nc(N)cc(C)c4C(F)(F)F)c(Cl)cc23)C(C)C1, the IC50 (second compound 0.00316 µM) was over 10 µM, the IC50 (second compound 0.01 µM) was over 10 µM and the IC50 (second compound 0.0316 µM) was over 10 µM. The IC50 (second compound 0.1 µM) was over 10 µM, the IC50 (second compound 0.316 µM) was over 10 µM and the IC50 (second compound 1 µM) was over 10 µM. For the same compound, the viability, T/C [1] was 95.1%, the viability, T/C [2] was 91.5% and the viability, T/C [3] was 77.3%. It also gave a viability, T/C [4] of 71.3%, a viability, T/C [5] of 79.7% and a viability, T/C [6] of 76%. The viability, T/C [7] was 96.3%, the viability, T/C [8] was 76.5% and the viability, T/C [9] was 78.7%. The viability, T/C [10] was 74.2%, the viability, T/C [11] was 75.3% and the viability, T/C [12] was 90.6%. For the same compound, the viability, T/C [13] was 94%, the viability, T/C [14] was 91.5% and the viability, T/C [15] was 87.2%. It also gave a viability, T/C [16] of 71.8%, a viability, T/C [17] of 66.6% and a viability, T/C [18] of 71.7%. It also gave a viability, T/C [19] of 91.1%, a viability, T/C [20] of 92.8% and a viability, T/C [21] of 82.5%. The viability, T/C [22] was 65.1%, the viability, T/C [23] was 77.6% and the viability, T/C [24] was 74.6%. The viability, T/C [25] was 101%, the viability, T/C [26] was 99.8% and the viability, T/C [27] was 81.8%. The viability, T/C [28] was 83.6%, the viability, T/C [29] was 74.2% and the viability, T/C [30] was 71%. The viability, T/C [31] was 103%, the viability, T/C [32] was 91% and the viability, T/C [33] was 80.4%. It also gave a viability, T/C [34] of 73.2%, a viability, T/C [35] of 81.5% and a viability, T/C [36] of 76.5%.

`NC1c2ccccc2OC12CCN(c1cnc3c(N4CCCc5ncccc54)n[nH]c3n1)CC2` (stereo unspecified) + C=CC(=O)N1CCN(c2nc(OCC3CCCN3C)nc3c(F)c(-c4nc(N)cc(C)c4C(F)(F)F)c(Cl)cc23)C(C)C1 was tested, and the IC50 (second compound 0.00316 µM) was over 10 µM, the IC50 (second compound 0.01 µM) was over 10 µM and the IC50 (second compound 0.0316 µM) was over 10 µM. The IC50 (second compound 0.1 µM) was over 10 µM, the IC50 (second compound 0.316 µM) was over 10 µM and the IC50 (second compound 1 µM) was over 10 µM. For the same compound, the viability, T/C [1] was 81.4%, the viability, T/C [2] was 77.9% and the viability, T/C [3] was 71.7%. It also gave a viability, T/C [4] of 80.1%, a viability, T/C [5] of 77.2% and a viability, T/C [6] of 55.8%. For the same compound, the viability, T/C [7] was 84.1%, the viability, T/C [8] was 75.3% and the viability, T/C [9] was 87.9%. The viability, T/C [10] was 70%, the viability, T/C [11] was 79.1% and the viability, T/C [12] was 62.9%. For the same compound, the viability, T/C [13] was 82.9%, the viability, T/C [14] was 66.2% and the viability, T/C [15] was 76.7%. It also gave a viability, T/C [16] of 85.3%, a viability, T/C [17] of 72.9% and a viability, T/C [18] of 59.1%. It also gave a viability, T/C [19] of 91.2%, a viability, T/C [20] of 86.5% and a viability, T/C [21] of 71%. For the same compound, the viability, T/C [22] was 72.6%, the viability, T/C [23] was 84% and the viability, T/C [24] was 81.7%. The viability, T/C [25] was 82.7%, the viability, T/C [26] was 91.5% and the viability, T/C [27] was 82.5%. It also gave a viability, T/C [28] of 91.5%, a viability, T/C [29] of 80.2% and a viability, T/C [30] of 61%. It also gave a viability, T/C [31] of 91.5%, a viability, T/C [32] of 68.8% and a viability, T/C [33] of 69.5%. It also gave a viability, T/C [34] of 72.1%, a viability, T/C [35] of 74% and a viability, T/C [36] of 66.2%.

Work on `Nc1ccn(C2OC(CO)C(O)C2(F)F)c(=O)n1` (stereo unspecified) + C=CC(=O)N1CCN(c2nc(OCC3CCCN3C)nc3c(F)c(-c4nc(N)cc(C)c4C(F)(F)F)c(Cl)cc23)C(C)C1 yielded an IC50 (second compound 0.00316 µM) of 0.015 µM, an IC50 (second compound 0.01 µM) of 0.0168 µM and an IC50 (second compound 0.0316 µM) of 0.0175 µM. It also gave an IC50 (second compound 0.1 µM) of 0.0176 µM, an IC50 (second compound 0.316 µM) of 0.0137 µM and an IC50 (second compound 1 µM) of 0.0175 µM. For the same compound, the viability, T/C (second compound 0.00316 µM, first compound 0.00316 µM) was 89.7%, the viability, T/C (second compound 0.00316 µM, first compound 0.01 µM) was 70.5% and the viability, T/C [1] was 12.2%. It also gave a viability, T/C [2] of 7.74%, a viability, T/C [3] of 7.62% and a viability, T/C [4] of 8.54%. The viability, T/C (second compound 0.01 µM, first compound 0.00316 µM) was 101%, the viability, T/C (second compound 0.01 µM, first compound 0.01 µM) was 81.4% and the viability, T/C [7] was 11.6%. For the same compound, the viability, T/C [8] was 8.54%, the viability, T/C [9] was 7.95% and the viability, T/C [10] was 11.2%. The viability, T/C (second compound 0.0316 µM, first compound 0.00316 µM) was 84.2%, the viability, T/C (second compound 0.0316 µM, first compound 0.01 µM) was 86% and the viability, T/C [13] was 13%. The viability, T/C [14] was 6.18%, the viability, T/C [15] was 9.67% and the viability, T/C [16] was 8.77%. The viability, T/C (second compound 0.1 µM, first compound 0.00316 µM) was 96.1%, the viability, T/C (second compound 0.1 µM, first compound 0.01 µM) was 86.2% and the viability, T/C [19] was 12.4%. The viability, T/C [20] was 9.42%, the viability, T/C [21] was 8.72% and the viability, T/C [22] was 8.42%. The viability, T/C (second compound 0.316 µM, first compound 0.00316 µM) was 98.1%, the viability, T/C (second compound 0.316 µM, first compound 0.01 µM) was 63.7% and the viability, T/C [25] was 13.7%. For the same compound, the viability, T/C [26] was 7.48%, the viability, T/C [27] was 6.75% and the viability, T/C [28] was 9.71%. For the same compound, the viability, T/C (second compound 1 µM, first compound 0.00316 µM) was 103%, the viability, T/C (second compound 1 µM, first compound 0.01 µM) was 85.2% and the viability, T/C [31] was 13%. It also gave a viability, T/C [32] of 8.41%, a viability, T/C [33] of 9.99% and a viability, T/C [34] of 10.3%.
